Experimental data taken from patent publication US9346798B2, “Dihydrobenzoxazine and tetrahydroquinoxaline sodium channel inhibitors” (AMGEN INC., priority 2012, dated 2016).

Target: Nav 1.7 (Homo sapiens (Human), UniProt Q15858)
Test: Nav 1.7 in vitro PX assay, PatchXpress whole cell voltage clamp
Type: cell-based
Details: HEK293; values marked *; 4.9 μM; HEK 293 cells stably transfected with human Nav1.7; read-out: Nav 1.7 PX percent inhibition at 4.9 μM
Description: Nav 1.7 In Vitro PX Assay
HEK 293 cells stably transfected with human Nav1.7 were recorded in whole cell voltage clamp mode with the PatchXpress automated electrophysiology system (Molecular Devices, LLC, Sunnyvale, Calif.). Compound effects were measured on a partially inactivated state of the sodium channel. Cells were clamped to a holding potential yielding 20 to 50% inactivation. To elicit sodium current, channels were activated by pulsing to −10 mV for 20 msec. This voltage protocol was repeated at a rate of 0.1 Hz throughout the experiment. A single concentration of test compound was applied to cells for a duration of 3 minutes. Peak sodium current was measured at the end of the compound addition period to determine percent inhibition. Three to five cells were tested per concentration, and IC50 curves were fitted to percent inhibition as a function of concentration.

Chain of Nav 1.7 (Q15858 whole entry): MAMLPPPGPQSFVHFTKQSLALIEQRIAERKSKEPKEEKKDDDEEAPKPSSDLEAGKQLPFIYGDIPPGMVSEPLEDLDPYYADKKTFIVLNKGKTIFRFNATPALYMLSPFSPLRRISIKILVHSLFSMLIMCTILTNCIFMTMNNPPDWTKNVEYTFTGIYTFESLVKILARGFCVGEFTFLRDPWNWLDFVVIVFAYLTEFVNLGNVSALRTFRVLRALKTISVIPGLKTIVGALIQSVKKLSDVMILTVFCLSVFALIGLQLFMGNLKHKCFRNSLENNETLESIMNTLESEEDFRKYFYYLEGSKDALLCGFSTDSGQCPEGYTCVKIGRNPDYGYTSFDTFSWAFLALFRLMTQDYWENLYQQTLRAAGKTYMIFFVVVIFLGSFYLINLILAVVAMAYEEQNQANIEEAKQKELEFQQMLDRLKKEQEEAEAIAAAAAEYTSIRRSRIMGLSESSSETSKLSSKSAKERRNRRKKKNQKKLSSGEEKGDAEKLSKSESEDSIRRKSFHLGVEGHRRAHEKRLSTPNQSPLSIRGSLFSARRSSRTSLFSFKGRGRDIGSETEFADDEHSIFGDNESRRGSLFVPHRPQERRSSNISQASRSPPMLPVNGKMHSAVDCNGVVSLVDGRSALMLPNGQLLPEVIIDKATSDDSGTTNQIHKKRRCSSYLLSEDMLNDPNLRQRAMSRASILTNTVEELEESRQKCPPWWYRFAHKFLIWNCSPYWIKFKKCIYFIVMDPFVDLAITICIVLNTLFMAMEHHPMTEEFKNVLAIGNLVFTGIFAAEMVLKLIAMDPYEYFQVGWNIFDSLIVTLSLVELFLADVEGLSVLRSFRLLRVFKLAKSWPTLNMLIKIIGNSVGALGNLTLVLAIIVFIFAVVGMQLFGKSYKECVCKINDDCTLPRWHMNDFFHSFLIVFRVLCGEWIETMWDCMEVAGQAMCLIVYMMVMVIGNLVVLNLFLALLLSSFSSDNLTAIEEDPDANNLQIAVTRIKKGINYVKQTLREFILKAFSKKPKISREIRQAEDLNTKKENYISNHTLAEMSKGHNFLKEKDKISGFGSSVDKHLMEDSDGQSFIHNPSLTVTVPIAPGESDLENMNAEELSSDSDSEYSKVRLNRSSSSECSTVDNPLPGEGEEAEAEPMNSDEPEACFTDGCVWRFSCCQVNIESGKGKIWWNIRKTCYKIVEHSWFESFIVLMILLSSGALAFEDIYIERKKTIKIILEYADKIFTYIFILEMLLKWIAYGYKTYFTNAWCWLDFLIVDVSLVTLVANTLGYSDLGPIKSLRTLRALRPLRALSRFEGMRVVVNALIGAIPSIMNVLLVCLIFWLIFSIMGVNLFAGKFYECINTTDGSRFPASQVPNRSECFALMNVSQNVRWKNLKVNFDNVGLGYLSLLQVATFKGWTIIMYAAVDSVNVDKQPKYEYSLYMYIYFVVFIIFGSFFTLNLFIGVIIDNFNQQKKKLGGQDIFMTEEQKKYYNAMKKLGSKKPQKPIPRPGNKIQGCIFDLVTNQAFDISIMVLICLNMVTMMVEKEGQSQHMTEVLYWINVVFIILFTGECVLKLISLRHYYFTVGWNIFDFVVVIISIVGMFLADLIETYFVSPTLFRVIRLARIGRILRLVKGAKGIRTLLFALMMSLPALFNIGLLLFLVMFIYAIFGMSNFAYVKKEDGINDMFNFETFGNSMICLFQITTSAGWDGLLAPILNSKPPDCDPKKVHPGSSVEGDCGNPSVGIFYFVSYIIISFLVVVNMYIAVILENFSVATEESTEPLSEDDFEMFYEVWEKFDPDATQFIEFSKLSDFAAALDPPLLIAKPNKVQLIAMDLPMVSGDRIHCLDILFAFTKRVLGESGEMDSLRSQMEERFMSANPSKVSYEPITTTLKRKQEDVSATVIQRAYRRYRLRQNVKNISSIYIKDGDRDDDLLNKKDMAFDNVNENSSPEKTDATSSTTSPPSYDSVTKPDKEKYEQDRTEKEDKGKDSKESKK

First: CC(C)(O)COc1ccccc1N1CCOc2cc(S(=O)(=O)Nc3nccs3)ccc21 [Example 253, 4-(2-(2-hydroxy-2-methylpropoxy)phenyl)-N-(thiazol-2-yl)-3,4-dihydro-2H-benzo[b][1,4]oxazine-7-sulfonamide]
Second: COCC1CN(c2ccc(Cl)cc2C#N)c2ccc(S(=O)(=O)Nc3nccs3)cc2O1 (stereo not drawn) [Example 251, 4-(4-chloro-2-cyanophenyl)-2-(methoxymethyl)-N-(thiazol-2-yl)-3,4-dihydro-2H-benzo[b][1,4]oxazine-7-sulfonamide]
The inhibition at 4.9 µM of the first is lower: 27% for the first, 27.8% for the second.

Same assay, conditions: HEK 293 cells stably transfected with human Nav1.7; partially inactivated state (20 to 50% inactivation)

Going from `COc1ccc(C#N)cc1N1CCOc2cc(S(=O)(=O)Nc3nccs3)ccc21` [Example 225, 4-(5-Cyano-2-Methoxyphenyl)-N-(Thiazol-2-Yl)-3,4-Dihydro-2H-Benzo[B][1,4]Oxazine-7-Sulfonamide] to `COc1cc(C#N)ccc1N1C(=O)COc2cc(S(=O)(=O)Nc3nccs3)ccc21` [Example 232, 4-(4-Cyano-2-Methoxyphenyl)-3-Oxo-N-(Thiazol-2-Yl)-3,4-Dihydro-2H-Benzo[B][1,4]Oxazine-7-Sulfonamide], the IC50 rises from 303 nM to 2010 nM (6.6-fold). The first is the more potent here.

`O=C1COc2cc(S(=O)(=O)Nc3nccs3)ccc2N1c1ccc(C(F)(F)F)cc1Cl` [Example 241, 4-(2-Chloro-4-(Trifluoromethyl)Phenyl)-3-Oxo-N-(Thiazol-2-Yl)-3,4-Dihydro-2H-Benzo[B][1,4]Oxazine-7-Sulfonamide] and `Cc1cc(C(F)(F)F)ccc1N1C(=O)COc2cc(S(=O)(=O)Nc3nccs3)ccc21` [Example 247, 4-(2-Methyl-4-(Trifluoromethyl)Phenyl)-3-Oxo-N-(Thiazol-2-Yl)-3,4-Dihydro-2H-Benzo[B][1,4]Oxazine-7-Sulfonamide] are within 1.5-fold of each other in IC50: 483 nM for the first, 403 nM for the second.

`COc1ccc(F)cc1N1C(=O)COc2cc(S(=O)(=O)Nc3nccs3)ccc21` [Example 246, 4-(5-Fluoro-2-Methoxyphenyl)-3-Oxo-N-(Thiazol-2-Yl)-3,4-Dihydro-2H-Benzo[B][1,4]Oxazine-7-Sulfonamide] and `COc1cc(F)ccc1N1C(=O)COc2cc(S(=O)(=O)Nc3nccs3)ccc21` [Example 245, 4-(4-Fluoro-2-Methoxyphenyl)-3-Oxo-N-(Thiazol-2-Yl)-3,4-Dihydro-2H-Benzo[B][1,4]Oxazine-7-Sulfonamide] are within 1.5-fold of each other in IC50: 540 nM for the first, 615 nM for the second.

Compared with `NC(=O)c1ccccc1N1CCOc2cc(S(=O)(=O)Nc3nccs3)ccc21` [Example 244, 2-(7-(N-(Thiazol-2-Yl)Sulfamoyl)-2H-Benzo[B][1,4]Oxazin-4(3H)-Yl)Benzamide], `C=C(C)c1ccccc1N1CCOc2cc(S(=O)(=O)Nc3nccs3)ccc21` [Example 254, 4-(2-(prop-1-en-2-yl)phenyl)-N-(thiazol-2-yl)-3,4-dihydro-2H-benzo[b][1,4]oxazine-7-sulfonamide] is 2.1-fold lower in IC50: 5010 nM for the first, 2420 nM for the second.

First: CCc1ccccc1N1CCOc2cc(S(=O)(=O)Nc3nccs3)ccc21 [Example 259, 4-(2-ethylphenyl)-N-(thiazol-2-yl)-3,4-dihydro-2H-benzo[b][1,4]oxazine-7-sulfonamide]
Second: CS(=O)(=O)c1ccccc1N1CCOc2cc(S(=O)(=O)Nc3nccs3)ccc21 [Example 230, 4-(2-(Methylsulfonyl)Phenyl)-N-(Thiazol-2-Yl)-3,4-Dihydro-2H-Benzo[B][1,4]Oxazine-7-Sulfonamide]
The IC50 of the first is 21-fold lower: 1600 nM for the first, 33600 nM for the second. The first is the more potent here.

First: NC(=O)COc1ccccc1N1CCOc2cc(S(=O)(=O)Nc3nccs3)ccc21 [Example 256, 2-(2-(7-(N-(thiazol-2-yl)sulfamoyl)-2H-benzo[b][1,4]oxazin-4(3H)-yl)phenoxy)acetamide]
Second: N#CCOc1ccccc1N1CCOc2cc(S(=O)(=O)Nc3nccs3)ccc21 [Example 257, 4-(2-(cyanomethoxy)phenyl)-N-(thiazol-2-yl)-3,4-dihydro-2H-benzo[b][1,4]oxazine-7-sulfonamide]
The IC50 of the first is 5.4-fold higher: 2220 nM for the first, 408 nM for the second. The second is the more potent here.

Compared with `COc1cc(C(F)(F)F)ccc1N1C(=O)COc2cc(S(=O)(=O)Nc3ncns3)ccc21` [Example 248, 4-(2-Methoxy-4-(Trifluoromethyl)Phenyl)-3-Oxo-N-(1,2,4-Thiadiazol-5-Yl)-3,4-Dihydro-2H-Benzo[B][1,4]Oxazine-7-Sulfonamide], `COc1ccc(C(F)(F)F)cc1N1C(=O)COc2cc(S(=O)(=O)Nc3nccs3)ccc21` [Example 236, 4-(2-Methoxy-5-(Trifluoromethyl)Phenyl)-3-Oxo-N-(Thiazol-2-Yl)-3,4-Dihydro-2H-Benzo[B][1,4]Oxazine-7-Sulfonamide] is 2.9-fold higher in IC50: 175 nM for the first, 513 nM for the second. The first is the more potent here.

Compared with `O=S(=O)(Nc1nccs1)c1ccc2c(c1)OCCN2c1ccccc1Oc1ccncc1` [Example 260, 4-(2-(pyridin-4-yloxy)phenyl)-N-(thiazol-2-yl)-3,4-dihydro-2H-benzo[b][1,4]oxazine-7-sulfonamide], `O=S(=O)(Nc1nccs1)c1ccc2c(c1)OCCN2c1ccccc1-c1ccc(O)nc1` [Example 255, 4-(2-(6-hydroxypyridin-3-yl)phenyl)-N-(thiazol-2-yl)-3,4-dihydro-2H-benzo[b][1,4]oxazine-7-sulfonamide 2,2,2-trifluoroacetate] is 2.3-fold lower in IC50: 2260 nM for the first, 975 nM for the second.

Going from `CC(O)c1ccccc1N1C(=O)COc2cc(S(=O)(=O)Nc3nccs3)ccc21` (stereo not drawn) [Example 242, 4-(2-(1-Hydroxyethyl)Phenyl)-3-Oxo-N-(Thiazol-2-Yl)-3,4-Dihydro-2H-Benzo[B][1,4]Oxazine-7-Sulfonamide] to `COc1ccccc1N1C(=O)COc2cc(S(=O)(=O)Nc3nccs3)ccc21` [Example 235, 4-(2-Methoxyphenyl)-3-Oxo-N-(Thiazol-2-Yl)-3,4-Dihydro-2H-Benzo[B][1,4]Oxazine-7-Sulfonamide], the IC50 falls from 5820 nM to 896 nM (6.5-fold).

First: COc1cc(C(F)(F)F)ccc1N1C(=O)[C@H](C)Oc2cc(S(=O)(=O)Nc3nccs3)ccc21 [Example 264, (S)-4-(2-methoxy-4-(trifluoromethyl)phenyl)-2-methyl-3-oxo-N-(thiazol-2-yl)-3,4-dihydro-2H-benzo[b][1,4]oxazine-7-sulfonamide]
Second: COc1cc(C(F)(F)F)ccc1N1C(=O)C(C)(C)Oc2cc(S(=O)(=O)Nc3nccs3)ccc21 [Example 266, 4-(2-Methoxy-4-(Trifluoromethyl)Phenyl)-2,2-Dimethyl-3-Oxo-N-(Thiazol-2-Yl)-3,4-Dihydro-2H-Benzo[B][1,4]Oxazine-7-Sulfonamide]
The IC50 of the first is 9.4-fold lower: 596 nM for the first, 5620 nM for the second.

First: O=C1COc2cc(S(=O)(=O)Nc3nccs3)ccc2N1c1ccc(C(F)(F)F)cc1CO [Example 262, 4-(2-(hydroxymethyl)-4-(trifluoromethyl)phenyl)-3-oxo-N-(thiazol-2-yl)-3,4-dihydro-2H-benzo[b][1,4]oxazine-7-sulfonamide]
Second: O=C1COc2cc(S(=O)(=O)Nc3nccs3)ccc2N1c1ccc(C(F)(F)F)cc1F [Example 240, 4-(2-Fluoro-4-(Trifluoromethyl)Phenyl)-3-Oxo-N-(Thiazol-2-Yl)-3,4-Dihydro-2H-Benzo[B][1,4]Oxazine-7-Sulfonamide]
The IC50 of the first is 3.6-fold lower: 3350 nM for the first, 11900 nM for the second.

Going from `O=S(=O)(Nc1nccs1)c1ccc2c(c1)OCCN2c1ccccc1-c1cncnc1` [Example 231, 4-(2-(Pyrimidin-5-Yl)Phenyl)-N-(Thiazol-2-Yl)-3,4-Dihydro-2H-Benzo[B][1,4]Oxazine-7-Sulfonamide] to `CC(C)(O)c1ccccc1N1CCOc2cc(S(=O)(=O)Nc3nccs3)ccc21` [Example 258, 4-(2-(2-hydroxypropan-2-yl)phenyl)-N-(thiazol-2-yl)-3,4-dihydro-2H-benzo[b][1,4]oxazine-7-sulfonamide], the IC50 falls from 19800 nM to 1310 nM (15-fold). The second is the more potent here.

Going from `N#Cc1cc(Cl)ccc1N1CCOc2cc(S(=O)(=O)Nc3ccncn3)ccc21` [Example 243, 4-(4-Chloro-2-Cyanophenyl)-N-(Pyrimidin-4-Yl)-3,4-Dihydro-2H-Benzo[B][1,4]Oxazine-7-Sulfonamide] to `CC(C)(C#N)Oc1ccccc1N1CCOc2cc(S(=O)(=O)Nc3nccs3)ccc21` [Example 261, 4-(2-((2-cyanopropan-2-yl)oxy)phenyl)-N-(thiazol-2-yl)-3,4-dihydro-2H-benzo[b][1,4]oxazine-7-sulfonamide], the IC50 rises from 1880 nM to 3600 nM (1.9-fold).

`O=S(=O)(Nc1nccs1)c1ccc2c(c1)OCCN2c1ccccc1C(O)CO` (stereo not drawn) [Example 252, 4-(2-(1,2-dihydroxyethyl)phenyl)-N-(thiazol-2-yl)-3,4-dihydro-2H-benzo[b][1,4]oxazine-7-sulfonamide] and `COCCOc1ccccc1N1CCOc2cc(S(=O)(=O)Nc3nccs3)ccc21` [Example 229, 4-(2-(2-Methoxyethoxy)Phenyl)-N-(Thiazol-2-Yl)-3,4-Dihydro-2H-Benzo[B][1,4]Oxazine-7-Sulfonamide] are within 1.5-fold of each other in IC50: 3670 nM for the first, 3160 nM for the second.

`O=C1COc2cc(S(=O)(=O)Nc3nccs3)ccc2N1c1ccc(C(F)(F)F)cc1Br` [Example 239, 4-(2-Bromo-4-(Trifluoromethyl)Phenyl)-3-Oxo-N-(Thiazol-2-Yl)-3,4-Dihydro-2H-Benzo[B][1,4]Oxazine-7-Sulfonamide] and `COc1cc(Cl)ccc1N1C(=O)COc2cc(S(=O)(=O)Nc3nccs3)ccc21` [Example 233, 4-(4-Chloro-2-Methoxyphenyl)-3-Oxo-N-(Thiazol-2-Yl)-3,4-Dihydro-2H-Benzo[B][1,4]Oxazine-7-Sulfonamide] are within 1.5-fold of each other in IC50: 350 nM for the first, 327 nM for the second.

With `COc1cc(C(F)(F)F)ccc1N1CCOc2cc(S(=O)(=O)Nc3nccs3)c(C#N)cc21` [Example 213, 6-Cyano-4-(2-Methoxy-4-(Trifluoromethyl)Phenyl)-N-(Thiazol-2-Yl)-3,4-Dihydro-2H-Benzo[B][1,4]Oxazine-7-Sulfonamide] the IC50 was 455 nM.
